Read-outs that look alike come from different tables or passages of the source.
Columns and labels:
LPXTGase [1] = type: biochemical, Streptococcus pyogenes; conditions: for peptide cleaved, cpm: 40 mM Tris-HCl pH 7.6, 0.1% Brij 35, control 41,530 cpm
Experimental: Enzyme Assay Method: Aliquots (10 μl) were removed from the column fractions and added to 1.5 ml Microfuge tubes. To each tube was added 30 μl of 40 mM Tris-HCl buffer, pH 7.6, containing 0.1% Brij 35, followed by a 10 μl suspension of bead-bound LPXTG-peptide substrate (0.5 to 0.8 μg, 100,000 to 200,000 cpm). The reaction mixture was incubated with vigorous shaking for 60 min at 37° C. After this time, 100 μl of water was added to each tube, and after vortex mixing, the mixture was centrifuged at 10,000 rpm for 5 min to pellet the beads. 100 μl of the supernatant was withdrawn and radioactivity was counted with a gamma counter.
The LPXTGase was exposed to a variety of salts and its activity tested for cleavage of the LPXTG (SEQ ID NO:1)-containing peptide.

trypsin = assay: Periodate treatment of trypsin, enzyme activity measured; type: biochemical; conditions: identical manner (5 mM periodate, pH 6, 4 hrs at 4° C.)
LPXTGase [2] = assay: Periodate treatment of LPXTGase, enzyme activity measured; type: biochemical, Streptococcus pyogenes; conditions: 5 mM periodate, 20 mM phosphate buffer pH 6, 4 hrs at 4° C.
Experimental: Carbohydrate composition of LPXTGase. The carbohydrate composition of purified LPXTGase was determined by the Rockefeller University Analytical Service Laboratory using a Waters 490 HPLC system. […] It seemed plausible that the charged amino acids of the enzyme are internalized and the hydrophobic amino acids are located on the exterior surface in view of the fact that the enzyme is likely to be associated with the cell membrane. […] To test this, the enzyme was incubated with 5 mM of periodate in 20 mM phosphate buffer, pH 6, for 4 hrs at 4° C., and enzyme activity was measured.

[3] = 100 mM salt, one hour at 37° C.

| Structure (SMILES) | % of control (LPXTGase activity) (LPXTGase [1]) [%] | peptide cleaved, cpm (LPXTGase [1]; 20 mM salt, one hour at 37° C.) | peptide cleaved, cpm (LPXTGase [1]; [3]) | further results |
| --- | --- | --- | --- | --- |
| [Ca+2].[Cl-].[Cl-] [Calcium chloride] | 23 | 9,706 cpm | – | – |
| O=C(O)CN(CCN(CC(=O)O)CC(=O)O)CC(=O)O [EDTA] | 5.2 | 2,147 cpm | – | – |
| Cl.NO [Hydroxylamine-HCl] | 27 | – | 11,200 cpm | effect on LPXTGase activity (general statement) (LPXTGase [1]): inhibited |
| [Cl-].[Cl-].[Mg+2] [Magnesium chloride] | 20 | 8,615 cpm | – | – |
| [Cl-].[K+] [Potassium chloride] | – | – | 8,608 cpm | % of control (LPXTGase activity) (LPXTGase [1]; [3]): 20% |
| Cl.Cl.NCCCCN [Putrescene chloride] | – | 8,710 cpm | – | % of control (LPXTGase activity) (LPXTGase [1]; 20 mM salt, one hour at 37° C.): 21% |
| [Cl-].[Na+] [Sodium chloride] | – | – | 6,720 cpm | % of control (LPXTGase activity) (LPXTGase [1]; [3]): 16% |
| O=P(O)(O)O [Sodium phosphate] | 49 | 20,646 cpm | – | – |
| O=S(=O)([O-])[O-].[Na+].[Na+] [Sodium sulfate] | 57 | 23,454 cpm | – | – |
| [O-][I+3]([O-])([O-])O [periodate] | – | – | – | effect of periodate treatment on trypsin enzyme activity (trypsin): no effect; effect of periodate treatment on LPXTGase enzyme activity (LPXTGase [2]): nearly completely abolished the enzyme activity |
